# Data reported in patent US6753005B1, “Method for tissue perfusion” (Direct Therapeutics, Inc., priority 1997, dated 2004).
# “Also recorded” adds a separate entry of the source.
# System: normal feline brain
# Experiment: Normal feline brain model, direct intra-tissue injection
# Conditions: for Gross Findings: lesion size: 2 weeks
# Procedure: Mongrel cats weighing 2.5-3.0 kg were obtained from Liberty Research, Waverly, N.Y. Animals were anaesthetized using intramuscular acepromazine at 0.1 mg/kg, followed by 0-30 mg total dose of ketamine. A small incision was made over and extending posteriorly from the coronal suture. A 3 mm burr hole was made 0.75 cm posterior to the coronal suture and 0.75 cm lateral to the midline. Using a stereotactic frame, solutions were injected at a depth of 0.75 cm in the area of the sensory cortex. The burr hole was closed with bone wax and the skin closed with a skin clip. Doses of carmustine between 5 and 20 mg were administered in dehydrated alcohol volumes of between 0.05-0.4 ml. Two weeks post injection animals were sacrificed, the brain removed in toto and fixed in 10% buffered formalin and the brain examined grossly for lesions at the site of injection. Solutions injected consisted of an ethanol solvent vehicle alone, or containing varying concentrations of carmustine.
# [1] = 0.05 ml ethanol + 5 mg carmustine (100 mg/ml), 1 cat
# [2] = 0.05 ml ethanol + 20 mg carmustine (400 mg/ml), 1 cat
# [3] = 0.1 ml ethanol + 10 mg carmustine (100 mg/ml), 1 cat
# [4] = 0.2 ml ethanol + 5 mg carmustine (25 mg/ml), 1 cat
# [5] = 0.4 ml ethanol + 5 mg carmustine (12.5 mg/ml), 1 cat
smiles,measurement,setting,value
"O=NN(CCCl)C(=O)NCCCl [Carmustine, carmustine]",Clinical Signs,[1],NPND
same,Gross Findings: lesion size,[1],2-3 mm
same,Survival,"0.05 ml ethanol + 5 mg carmustine (100 mg/ml), 1 cat, sacrifice 2 weeks",Term
same,Clinical Signs,"0.05 ml ethanol + 10 mg carmustine (200 mg/ml), 1 cat","Circles to left, otherwise"
same,Survival,"0.05 ml ethanol + 10 mg carmustine (200 mg/ml), 1 cat, sacrifice 2 weeks",Term
same,Clinical Signs,[2],Died
same,Gross Findings: lesion size (diameter),[2],1-1.5 cm
same,Survival,[2],3 days
same,volume of lesion,0.05 ml ethanol containing 20 mg (400 mg/ml) carmustine,1.0 to 1.77 mL
same,volume of lesions,0.05 ml ethanol containing 10 and 20 mg (200 and 400 mg/ml) carmustine,1.0 to 1.77 mL
same,Clinical Signs,[3],NPND
same,Gross Findings: lesion size,[3],4-5 mm
same,Survival,"0.1 ml ethanol + 10 mg carmustine (100 mg/ml), 1 cat, sacrifice 2 weeks",Term
same,Clinical Signs,[4],NPND
same,Gross Findings: lesion size,[4],4 mm
same,Survival,"0.2 ml ethanol + 5 mg carmustine (25 mg/ml), 1 cat, sacrifice 2 weeks",Term
same,Clinical Signs,[5],NPND
same,Gross Findings: lesion size,[5],2-3 mm
same,Survival,"0.4 ml ethanol + 5 mg carmustine (12.5 mg/ml), 1 cat, sacrifice 2 weeks",Term
same,toxic effects on the tissue,0.4 ml ethanol containing 5 mg (12.5 mg/ml) carmustine,no toxic effects
same,effect on post-mitotic (non-dividing) cells of normal brain,"50 μl ethanol, carmustine 200 or 400 mg/ml",destruction of a relatively large volume of tissue; also recorded: novel activity of carmustine against non-dividing cells
same,toxic effects in normal brain tissue,solutions containing carmustine up to 100 mg/ml,no toxic effects
